Molecular target: T1, LRRK2 (Mus musculus, UniProt Q5S006)
T1 construct: from tissue; host or cells: mouse brain
Experiment: Drug pulldown with immobilized indol ligand 91 and identification of LRRK2 by LC-MS/MS
Type: binding
Conditions: ligand covalently attached to Sepharose beads, mouse brain lysate, SDS elution, SDS-PAGE, twelve LRRK2 peptides identified
Experimental: Proteins binding to immobilized indol ligand 91 were identified using a chemical proteomics procedure. Binding proteins were purified on a resin to which indol ligand 91 was covalently attached. Bound proteins were eluted and subsequently separated by SDS-Polyacrylamide gel elecrophoresis (see FIG. 2), suitable gel bands were cut out and proteins were analyzed by LC-MS/MS mass spectrometry.
NHS-activated Sepharose 4 Fast Flow (Amersham Biosciences, 17-0906-01) was equilibrated with anhydrous DMSO (Dimethylsulfoxid, Fluka, 41648, H20<=0.005%). 1 ml of settled beads were placed in a 15 ml Falcon tube, compound stock solution (usually 100 mM in DMF or DMSO) was added (final conc. 0.2-2 μmol/ml beads) as well as 15 μl of TEA. Beads were incubated at room temperature in darkness on an end-over-end shaker (Roto Shake Genie, Scientific Industries Inc.) for 16-20 hours. Coupling efficiency was determined by HPLC. […]
Mouse brain tissue was homogenized in a Potter S homogenizer (5 ml per brain): 50 mM Tris-HCl, 1% CHAPSO, 5% glycerol, 150 mM NaCl, 1.5 mM MgCl2, 25 mM NaF, 1 mM sodium vanadate, 1 mM DTT, pH 7.5. […] The supernatant was transferred again to a fresh 50 ml falcon tube, the protein concentration was determined by a Bradford assay (BioRad) and samples containing 50 mg of protein per aliquot were prepared. […]

T1 sequence (Q5S006 whole entry V777I/K863N/C925Y/E1011G/E1190G/E1882G/Q2178N): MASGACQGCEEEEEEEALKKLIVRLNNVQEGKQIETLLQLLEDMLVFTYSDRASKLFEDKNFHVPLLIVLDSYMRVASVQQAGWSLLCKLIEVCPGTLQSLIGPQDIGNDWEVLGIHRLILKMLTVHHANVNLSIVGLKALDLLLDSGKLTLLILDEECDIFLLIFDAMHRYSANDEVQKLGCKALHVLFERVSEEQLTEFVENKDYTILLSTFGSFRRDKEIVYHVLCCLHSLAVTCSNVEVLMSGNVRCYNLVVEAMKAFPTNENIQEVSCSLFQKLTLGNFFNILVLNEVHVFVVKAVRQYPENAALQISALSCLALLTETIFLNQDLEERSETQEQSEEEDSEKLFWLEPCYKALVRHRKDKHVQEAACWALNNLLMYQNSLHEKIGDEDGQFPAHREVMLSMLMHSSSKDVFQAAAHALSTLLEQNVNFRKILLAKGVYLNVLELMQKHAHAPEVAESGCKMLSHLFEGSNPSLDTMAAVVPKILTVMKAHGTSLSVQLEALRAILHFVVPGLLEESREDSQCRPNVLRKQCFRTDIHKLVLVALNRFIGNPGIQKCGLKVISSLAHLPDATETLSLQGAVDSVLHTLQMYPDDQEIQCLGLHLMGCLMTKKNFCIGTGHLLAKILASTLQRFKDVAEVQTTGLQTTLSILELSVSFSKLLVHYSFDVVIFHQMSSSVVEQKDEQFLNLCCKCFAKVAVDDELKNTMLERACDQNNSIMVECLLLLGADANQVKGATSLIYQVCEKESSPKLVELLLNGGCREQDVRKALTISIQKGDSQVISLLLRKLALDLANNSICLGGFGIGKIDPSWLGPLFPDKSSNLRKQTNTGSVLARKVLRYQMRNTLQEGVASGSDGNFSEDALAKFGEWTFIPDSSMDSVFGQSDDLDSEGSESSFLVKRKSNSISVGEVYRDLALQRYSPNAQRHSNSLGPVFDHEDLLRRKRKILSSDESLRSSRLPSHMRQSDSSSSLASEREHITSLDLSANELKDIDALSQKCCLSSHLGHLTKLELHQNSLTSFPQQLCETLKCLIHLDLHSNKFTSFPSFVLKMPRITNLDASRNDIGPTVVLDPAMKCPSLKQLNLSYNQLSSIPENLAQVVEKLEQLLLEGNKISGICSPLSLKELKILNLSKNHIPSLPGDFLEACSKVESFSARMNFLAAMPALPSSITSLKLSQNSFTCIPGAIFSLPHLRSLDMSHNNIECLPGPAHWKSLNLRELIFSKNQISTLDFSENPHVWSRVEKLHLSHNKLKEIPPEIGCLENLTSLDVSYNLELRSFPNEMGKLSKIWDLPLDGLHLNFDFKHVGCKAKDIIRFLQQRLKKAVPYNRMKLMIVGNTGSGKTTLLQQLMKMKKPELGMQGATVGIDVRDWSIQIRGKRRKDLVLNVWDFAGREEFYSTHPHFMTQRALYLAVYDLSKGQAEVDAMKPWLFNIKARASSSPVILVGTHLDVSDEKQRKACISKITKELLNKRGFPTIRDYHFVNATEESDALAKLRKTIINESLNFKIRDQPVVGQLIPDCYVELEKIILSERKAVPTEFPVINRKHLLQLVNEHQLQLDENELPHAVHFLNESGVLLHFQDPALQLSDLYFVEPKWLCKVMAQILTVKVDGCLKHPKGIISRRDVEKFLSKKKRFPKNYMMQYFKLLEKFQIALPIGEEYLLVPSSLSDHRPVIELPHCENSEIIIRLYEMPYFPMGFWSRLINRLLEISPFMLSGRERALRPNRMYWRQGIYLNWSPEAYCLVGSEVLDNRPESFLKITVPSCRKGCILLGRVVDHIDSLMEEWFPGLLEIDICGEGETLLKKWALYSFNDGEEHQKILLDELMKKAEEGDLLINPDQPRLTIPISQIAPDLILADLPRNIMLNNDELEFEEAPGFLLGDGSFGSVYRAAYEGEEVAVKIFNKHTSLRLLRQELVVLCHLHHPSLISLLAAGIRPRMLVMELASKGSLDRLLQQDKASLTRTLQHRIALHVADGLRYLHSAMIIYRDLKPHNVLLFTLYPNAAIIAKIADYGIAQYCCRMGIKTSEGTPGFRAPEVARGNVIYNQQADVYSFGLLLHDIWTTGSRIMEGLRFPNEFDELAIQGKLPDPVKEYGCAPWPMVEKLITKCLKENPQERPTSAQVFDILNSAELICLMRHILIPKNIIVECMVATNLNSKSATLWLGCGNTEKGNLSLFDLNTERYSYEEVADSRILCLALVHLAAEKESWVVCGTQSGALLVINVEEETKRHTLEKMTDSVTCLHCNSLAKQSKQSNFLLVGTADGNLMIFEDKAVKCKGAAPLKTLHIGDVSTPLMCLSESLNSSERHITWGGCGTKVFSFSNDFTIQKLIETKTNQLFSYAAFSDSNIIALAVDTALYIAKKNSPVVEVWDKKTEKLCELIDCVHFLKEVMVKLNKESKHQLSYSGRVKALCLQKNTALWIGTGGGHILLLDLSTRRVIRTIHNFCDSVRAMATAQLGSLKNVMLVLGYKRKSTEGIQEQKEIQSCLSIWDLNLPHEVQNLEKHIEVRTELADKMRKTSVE

Cc1[nH]c(/C=C2\C(=O)Nc3ccc(F)cc32)c(C)c1C(=O)NCCCN [indol ligand 91, 5-[5-Fluoro-2-oxo-1,2-dihydro-indol-(3Z)-ylidenemethyl]-2,4-dimethyl-1H-pyrrole-3-carboxylic acid (3-amino-propyl)-amide]
enrichment/identification of LRRK2 bound to the immobilized ligand: can be used to enrich and characterize LRRK2 from mouse brain lysates

From patent US8163511B2, “Methods for the identification of LRRK2 interacting molecules” (CellZome AG, priority 2006, dated 2012)
